Entries after “also recorded” stand apart in the source; their conditions may differ. Read-outs that look alike come from different tables or passages of the source.
Experiments:
TPM3-TRKA fusion protein [1] = target: T1, TPM3-TRKA fusion protein (Homo sapiens, UniProt P04629+P06753+Q96SW2); test: Immunoblotting of TPM3-TRKA fusion protein in KM12 cells; type: cell-based; parameters: The resulted chimeric proteins always retain the kinase domain of TRK proteins; TPM3 (N-terminal fusion partner, natural gene fusion); endogenous in cells; host or cells: KM12 colon cancer cells; conditions: for time after adding compound at which significant degradation of TPM3-TRKA was detected: 100 nM (FIG. 2); for TPM3-TRKA protein levels / TPM3-TRKA protein levels, time course: 100 nM; for TPM3-TRKA protein levels: 16 hours (FIG. 1A-1C); for TPM3-TRKA protein levels, time course: indicated incubation time (FIG. 2); for TRKA protein levels: dose range (FIG. 8A)
T1 sequence (P06753+P04629 fused): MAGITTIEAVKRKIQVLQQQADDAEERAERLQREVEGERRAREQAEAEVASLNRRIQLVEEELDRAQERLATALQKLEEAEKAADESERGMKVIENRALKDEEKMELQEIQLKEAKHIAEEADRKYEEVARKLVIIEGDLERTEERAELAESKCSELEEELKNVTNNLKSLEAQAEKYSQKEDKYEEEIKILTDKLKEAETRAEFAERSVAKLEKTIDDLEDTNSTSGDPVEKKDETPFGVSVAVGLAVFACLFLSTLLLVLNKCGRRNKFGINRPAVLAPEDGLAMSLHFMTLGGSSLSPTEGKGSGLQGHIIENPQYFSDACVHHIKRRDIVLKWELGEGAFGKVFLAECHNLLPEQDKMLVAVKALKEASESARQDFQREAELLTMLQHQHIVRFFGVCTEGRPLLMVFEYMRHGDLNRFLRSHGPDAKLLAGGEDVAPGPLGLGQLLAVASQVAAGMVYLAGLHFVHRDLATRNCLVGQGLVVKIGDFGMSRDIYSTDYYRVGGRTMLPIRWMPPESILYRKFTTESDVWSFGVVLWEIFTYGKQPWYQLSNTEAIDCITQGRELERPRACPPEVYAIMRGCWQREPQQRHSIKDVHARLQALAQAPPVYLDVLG
T1 sequence (Q96SW2 whole entry, the tested form may be a part): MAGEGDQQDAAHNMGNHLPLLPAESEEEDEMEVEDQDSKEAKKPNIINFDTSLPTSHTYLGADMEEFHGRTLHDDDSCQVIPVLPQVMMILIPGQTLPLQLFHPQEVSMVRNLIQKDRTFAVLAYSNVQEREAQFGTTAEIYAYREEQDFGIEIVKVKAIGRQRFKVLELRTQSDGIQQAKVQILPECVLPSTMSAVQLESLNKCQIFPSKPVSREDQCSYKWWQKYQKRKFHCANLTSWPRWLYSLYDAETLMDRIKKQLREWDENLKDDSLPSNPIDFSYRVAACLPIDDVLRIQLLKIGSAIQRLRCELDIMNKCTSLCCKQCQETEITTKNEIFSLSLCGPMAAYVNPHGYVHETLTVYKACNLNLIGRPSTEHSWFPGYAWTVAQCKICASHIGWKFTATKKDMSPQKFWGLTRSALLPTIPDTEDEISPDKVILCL
T1 sequence (Q16531 whole entry partner, the tested form may be a part): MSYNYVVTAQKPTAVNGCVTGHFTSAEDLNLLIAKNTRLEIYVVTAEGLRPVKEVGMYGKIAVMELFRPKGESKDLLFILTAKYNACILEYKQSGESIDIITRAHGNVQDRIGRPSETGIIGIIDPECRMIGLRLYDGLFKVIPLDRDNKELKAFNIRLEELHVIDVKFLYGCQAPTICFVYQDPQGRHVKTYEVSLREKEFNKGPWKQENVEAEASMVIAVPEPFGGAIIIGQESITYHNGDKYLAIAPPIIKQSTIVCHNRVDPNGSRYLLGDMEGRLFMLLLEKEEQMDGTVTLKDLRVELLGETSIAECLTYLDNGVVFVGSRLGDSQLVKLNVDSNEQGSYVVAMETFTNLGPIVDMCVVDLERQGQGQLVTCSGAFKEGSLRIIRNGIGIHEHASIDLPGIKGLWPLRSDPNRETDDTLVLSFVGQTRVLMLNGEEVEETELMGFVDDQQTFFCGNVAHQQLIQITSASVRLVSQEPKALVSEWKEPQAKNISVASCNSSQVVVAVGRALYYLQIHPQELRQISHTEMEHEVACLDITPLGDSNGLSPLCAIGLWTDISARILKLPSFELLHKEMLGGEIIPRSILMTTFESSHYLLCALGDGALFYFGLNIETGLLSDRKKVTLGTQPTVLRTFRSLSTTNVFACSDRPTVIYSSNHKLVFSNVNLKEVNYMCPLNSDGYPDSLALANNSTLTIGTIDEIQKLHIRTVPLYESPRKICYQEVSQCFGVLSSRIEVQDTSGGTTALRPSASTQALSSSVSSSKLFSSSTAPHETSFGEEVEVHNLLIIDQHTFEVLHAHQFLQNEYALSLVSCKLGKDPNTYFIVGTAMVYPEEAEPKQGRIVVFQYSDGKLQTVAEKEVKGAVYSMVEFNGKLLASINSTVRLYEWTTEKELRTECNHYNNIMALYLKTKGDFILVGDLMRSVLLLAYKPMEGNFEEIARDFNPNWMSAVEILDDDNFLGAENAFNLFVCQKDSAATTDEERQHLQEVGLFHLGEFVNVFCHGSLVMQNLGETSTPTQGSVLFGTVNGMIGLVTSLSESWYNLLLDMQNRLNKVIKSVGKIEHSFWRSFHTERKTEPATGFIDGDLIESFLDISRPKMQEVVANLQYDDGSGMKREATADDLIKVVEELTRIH
Experimental: Specific exemplary bivalent compounds were characterized in KM12 cells. […] Cells were collected, lysed and subject to immunoblotting using an antibody specific to TRK proteins. GAPDH was included as the loading control. DMSO was used as the negative control.
KM12 cells were treated with DMSO or indicated compounds at 100 nM for 16 hours.
KM12 cells were treated with CPD-027, CPD-053, and CPD-060 at 100 nM for indicated incubation time. […]
(§1) KM12 or HEL cells were treated with a dose range of compound TR-123 or TR-123-negative. The latter lost binding to cereblon (CRBN) due to a chemical modification.
KM12 or HEL cells were treated with a single dose of compound TR-123 or combination with MG-132, Bortezomib, MLN4924 or Pomalidomide. […]
(§2) Cultured cells were washed with cold PBS once and lysed in cold RIPA buffer supplemented with protease inhibitors and phosphatase inhibitors (Beyotime Biotechnology). The solutions were then incubated at 4° C. for 30 minutes with gentle agitation to fully lyse cells. For tumor tissues, tumors were cut into small pieces, milled with cold RIPA buffer using a mechanical homogenizer and lysed for 1 hour at 4° C. Cell lysates were centrifuged at 13,000 rpm for 10 minutes at 4° C. and pellets were discarded. Total protein concentrations in the lysates were determined by BCA assays (Beyotime Biotechnology). Cell lysates were mixed with Laemmli loading buffer to 1× and heated at 99° C. for 5 min. Proteins were resolved on SDS-PAGE and visualized by chemiluminescence. Images were taken by a ChemiDoc MP Imaging system (Bio-Rad). Protein bands were quantitated using the software provided by Bio-Rad.

KM12 cells = test: Cell viability assay (CellTiter-Glo) in KM12 cells; type: cell-based; conditions: Homo sapiens, 72 h, KM12 cell viability, CellTiter-Glo, 3 days, read-out: IC50
TPM3-TRKA fusion protein [2] = target: T1, TPM3-TRKA fusion protein; test: Immunoblotting of TPM3-TRKA in KM12 subcutaneous xenograft tumors; type: in vivo, Athymic nude mice; parameters: The resulted chimeric proteins always retain the kinase domain of TRK proteins; TPM3 (N-terminal fusion partner, natural gene fusion); from tissue; host or cells: KM12 subcutaneous xenograft tumors in athymic nude mice; conditions: for TPM3-TRKA protein levels in KM12 subcutaneous xenograft tumors: 10, 20, or 50 mg/kg intraperitoneally, single dose, four hours after administration (FIG. 3)
Experimental: In addition to cultured cells, athymic nude mice bearing KM12 subcutaneous xenograft tumors at the right flank were intraperitoneally treated with 10, 20, or 50 mg/kg CPD-053, CPD-027, or CPD-060. Four hours after drug administration, animals were sacrificed for immunoblotting of TPM3-TPKA in homogenized xenograft tumor masses. The label “a” or “b” represents two different samples of the same xenograft tumor.
Athymic nude mice bearing KM12 subcutaneous xenograft tumors at the right flank were intraperitoneally treated with 10, 20, or 50 mg/kg CPD-053, CPD-027, or CPD-060, as indicated in FIG. 3. Four hours after drug administration, animals were sacrificed for immunoblotting of TPM3-TPKA in homogenized xenograft tumor chunks. The label “a” or “b” represents two different chunks of the same xenograft tumor.
Athymic nude mice bearing KM12 subcutaneous xenograft tumors at the right flank were intraperitoneally or orally treated with bivalent compounds at indicated dose. Eight hours after drug administration, animals were sacrificed for immunoblotting of TPM3-TPKA in homogenized xenograft tumor samples.
as §2
(§3) All animal experiments were performed under protocols approved by the Institutional Animal Care and Use Committee (IACUC) of Cullgen. Athymic nude mice (male, 5-weeks old) received 5 million KM12 cells subcutaneously inoculated at the right flank site. Ten days following inoculation, tumors were approximately 500 mm3 in size. Tumor-bearing mice were treated intraperitoneally with vehicle or bivalent compounds at indicated doses. Tumor sizes and body weight of mice were measured every 2 days. In addition, immunoblotting assays were employed to assess the levels of TRKA fusion proteins in xenograft tumors around 500 mm^3 in size following drug administration. At indicated hours after drug administration, selected mice were sacrificed, tumors were resected. Small chunks of tumors were homogenized for immunoblotting of TPM3-TPKA and other proteins as indicated.

[3] = test system: KM12 subcutaneous xenograft tumors; test: KM12 subcutaneous xenograft tumor growth study; type: in vivo, Athymic nude mice
Experimental: (§4) Athymic nude mice bearing KM12 subcutaneous xenograft tumors at the right flank were intraperitoneally treated with vehicle or 25 mg/kg CPD-060 once per day (qd), twice per day (bid), or once every two days (q2d). Tumor volumes were assessed every two days and expressed as length×width×width/2. Body weights of experimental mice were also measured to assess the toxicity of compounds.
(§5) Athymic nude mice bearing KM12 subcutaneous xenograft tumors at the right flank were treated with vehicle, 10-20 mg/kg TR-181 or TR-198 once per day (qd), or twice per day (bid) via oral gavage. Tumor volumes were assessed every two days and expressed as length×width×width/2. Body weights of experimental mice were also measured to assess the toxicity of compounds.
as §3

[4] = Body weight of xenograft-bearing mice (toxicity); type: in vivo, Athymic nude mice
Experimental: as §4, §5, §3

TRK-fusions = conditions: cited from earlier work
[5] = Mouse pharmacokinetic (PK) studies; type: in vivo; conditions: mice; for plasma exposure: single 20 mg/kg intraperitoneal injection, over 12 hours (FIG. 11), 20 mg/kg
Experimental: To investigate the pharmacokinetics of bi-functional compounds, exemplified by TR-123, a single 20 mg/kg intraperitoneal injection was evaluated. […] Additionally, doses of 2 mg/kg TR-198 via intravenous injection and 20 mg/kg TR-198 via oral gavage were evaluated in mice.
A single 20 mg/kg intraperitoneal injection of compound TR-123 was evaluated. Plasma concentrations of TR-123 reported at each of the 6 time points (30 min, 1 h, 2 h, 4 h, 8 h, and 12 h post compound administration) are the average values from 3 test animals.
A single 2 mg/kg intravenous injection and 20 mg/kg oral gavage of TR-198 were evaluated in mice.
Plasma concentrations of TR-198 reported at each of the 6 time points (5 min, 30 min, 2 h, 4 h, 8 h, and 12 h post compound administration via IV, 30 min, 1 h, 2 h, 4 h, 8 h, and 12 h post compound administration via p.o.) are the average values from 3 test animals.
Standard PK studies were conducted using male Swiss Albino mice by Sai Life Sciences. A single 20 mg/kg intraperitoneal (IP) injection of compound TR-123 was evaluated. Plasma concentrations of TR-123 reported at each of the 6 time points (30 min, 1 h, 2 h, 4 h, 8 h, and 12 h post dosing) are the average values from 3 test animals. Error bars represent+SD.

wild type TRKA protein = target: T2, wild type TRKA protein (Homo sapiens, UniProt P04629); test: Immunoblotting of wild type TRKA protein in HEL cells; type: cell-based; conditions: for TRKA protein levels: dose range (FIG. 8B)
T2 construct: immunoblot of wild type TRKA protein expressed by HEL cells; endogenous in cells; host or cells: HEL cells
T2 sequence (P04629 33-796): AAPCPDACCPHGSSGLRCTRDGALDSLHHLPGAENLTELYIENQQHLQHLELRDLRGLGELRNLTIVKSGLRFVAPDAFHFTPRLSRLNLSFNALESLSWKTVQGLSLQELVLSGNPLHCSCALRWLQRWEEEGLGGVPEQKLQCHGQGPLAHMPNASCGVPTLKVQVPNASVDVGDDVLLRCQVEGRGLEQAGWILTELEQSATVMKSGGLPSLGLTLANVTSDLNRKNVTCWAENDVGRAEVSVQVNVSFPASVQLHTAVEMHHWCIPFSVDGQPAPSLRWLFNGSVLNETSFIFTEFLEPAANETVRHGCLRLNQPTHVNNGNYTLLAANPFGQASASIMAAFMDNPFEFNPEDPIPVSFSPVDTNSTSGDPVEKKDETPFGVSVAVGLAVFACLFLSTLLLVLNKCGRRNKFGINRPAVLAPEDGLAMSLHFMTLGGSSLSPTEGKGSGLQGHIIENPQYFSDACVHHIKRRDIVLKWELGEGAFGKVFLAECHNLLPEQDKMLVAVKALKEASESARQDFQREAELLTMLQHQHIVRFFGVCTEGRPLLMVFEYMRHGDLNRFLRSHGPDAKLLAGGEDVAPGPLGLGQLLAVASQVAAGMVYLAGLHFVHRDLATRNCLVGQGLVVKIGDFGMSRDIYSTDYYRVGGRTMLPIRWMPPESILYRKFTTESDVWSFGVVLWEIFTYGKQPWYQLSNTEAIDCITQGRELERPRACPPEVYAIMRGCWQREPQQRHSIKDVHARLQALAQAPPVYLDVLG
Experimental: as §1
KM12 or HEL cells were treated with a single dose of compound TR-123 or combination with MG-132, Bortezomib, MLN4924 or Pomalidomide.
as §2

With O=C1CCC(N2C(=O)c3cccc(NCCOCCC(=O)N4CCN(c5cccc(-c6cnc7ccc(N8CCC[C@@H]8c8cccc(F)c8)nn67)n5)CC4)c3C2=O)C(=O)N1 (stereo partly drawn) [CPD-027, 2-(2,6-Dioxopiperidin-3-yl)-4-((2-(3-(4-(6-(6-((R)-2-(3-fluorophenyl)pyrrolidin-1-yl)imidazo[1,2-b]pyridazin-3-yl)pyridin-2-yl)piperazin-1-yl)-3-oxopropoxy)ethyl)amino)isoindoline-1,3-dione] the “time after adding compound at which significant degradation of TPM3-TRKA was detected” value (TPM3-TRKA fusion protein [1]) was 15 min, the TPM3-TRKA protein levels (TPM3-TRKA fusion protein [1]) was “particularly effective in reducing TPM3-TRKA protein levels” and the “TPM3-TRKA protein levels, time course” value (TPM3-TRKA fusion protein [1]) was “rapidly reduced TPM3-TRKA protein levels”. The IC50 (KM12 cells; Table 2) was 4.9 nM and the “TPM3-TRKA protein levels in KM12 subcutaneous xenograft tumors” value (TPM3-TRKA fusion protein [2]) was “significantly reducing TPM3-TRKA protein levels”.

In the case of O=C(CN1CCN(c2cccc(-c3cnc4ccc(N5CCC[C@@H]5c5cccc(F)c5)nn34)n2)CC1)NCCNc1cccc2c1C(=O)N(C1CCC(=O)NC1=O)C2=O (stereo partly drawn) [CPD-060, N-(2-((2-(2,6-dioxopiperidin-3-yl)-1,3-dioxoisoindolin-4-yl)amino)ethyl)-2-(4-(6-(6-((R)-2-(3-fluorophenyl)pyrrolidin-1-yl)imidazo[1,2-b]pyridazin-3-yl)pyridin-2-yl)piperazin-1-yl)acetamide], the “time after adding compound at which significant degradation of TPM3-TRKA was detected” value (TPM3-TRKA fusion protein [1]) is reported as 15 min, the TPM3-TRKA protein levels (TPM3-TRKA fusion protein [1]) is reported as “particularly effective in reducing TPM3-TRKA protein levels” and the “TPM3-TRKA protein levels, time course” value (TPM3-TRKA fusion protein [1]) is reported as “rapidly reduced TPM3-TRKA protein levels”. The IC50 (KM12 cells; Table 2) was 6 nM, the “growth of KM12 subcutaneous xenograft tumors” value ([3]; 25 mg/kg intraperitoneally qd, bid or q2d (FIG. 12A)) was “significantly repressed the growth” and the body weight ([4]; 25 mg/kg intraperitoneally qd, bid or q2d (FIG. 12B)) was “without inducing substantial weight losses”. The “TPM3-TRKA protein levels in KM12 subcutaneous xenograft tumors” value (TPM3-TRKA fusion protein [2]) was “significantly reducing TPM3-TRKA protein levels”.

For O=C(Nc1cnn2ccc(N3CCC[C@@H]3c3cc(F)ccc3F)nc12)N1CC[C@H](O)C1 [LOXO-101, larotrectinib], the IC50 (KM12 cells; Table 3) is given as 25 nM, the “patients who responded to the therapy” value (TRK-fusions; phase 2 (Drilon et al., 2018)) is given as 75% and the patients remaining progression-free (TRK-fusions; phase 2, at 1 year (Drilon et al., 2018)) is given as 55%.

In the case of O=C1CCC(N2C(=O)c3ccc(NCC(=O)N4CCN(c5cccc(-c6cnc7ccc(N8CCC[C@@H]8c8cccc(F)c8)nn67)n5)CC4)cc3C2=O)C(=O)N1 (some centres unmarked) [TR123], the plasma exposure [5] is reported as “good plasma exposure”.

With O=C1CCC(N2C(=O)c3ccc(NCC(=O)N4CCN(c5cccc(-c6cnc7ccc(N8CCC[C@@H]8c8cccc(F)c8)nn67)n5)CC4)cc3C2=O)C(=O)N1 (stereo partly drawn) [TR-123, 2-(2,6-dioxopiperidin-3-yl)-5-((2-(4-(6-(6-((R)-2-(3-fluorophenyl)pyrrolidin-1-yl)imidazo[1,2-b]pyridazin-3-yl)pyridin-2-yl)piperazin-1-yl)-2-oxoethyl)amino)isoindoline-1,3-dione] the TRKA protein levels (TPM3-TRKA fusion protein [1]) was “reduced TRKA protein levels in a concentration-dependent manner”, the “TRKA degradation in combination with MG-132, Bortezomib or MLN4924” value (TPM3-TRKA fusion protein [1]; single dose (FIG. 9A)) was “compromised” and the IC50 (KM12 cells; Table 3) was 1.7 nM. The plasma exposure [5] was “significant plasma exposure”, the “TPM3-TRKA degradation in KM12 subcutaneous tumors” value (TPM3-TRKA fusion protein [2]; intraperitoneal or oral administration, eight hours after administration (FIG. 10)) was “exhibited the activities to induce TPM3-TRKA degradation” and the TRKA protein levels (wild type TRKA protein) was “reduced TRKA protein levels in a concentration-dependent manner; also recorded: significant degradation of full-length TRKA”. For the same compound, the “TRKA degradation in combination with MG-132, Bortezomib, MLN4924 or Pomalidomide” value (wild type TRKA protein; single dose (FIG. 9B)) was “compromised”.

In the case of CN1C(=O)CCC(N2C(=O)c3ccc(NCC(=O)N4CCN(c5cccc(-c6cnc7ccc(N8CCC[C@@H]8c8cccc(F)c8)nn67)n5)CC4)cc3C2=O)C1=O (stereo partly drawn) [TR-123-negative, 5-((2-(4-(6-(6-((R)-2-(3-Fluorophenyl)pyrrolidin-1-yl)imidazo[1,2-b]pyridazin-3-yl)pyridin-2-yl)piperazin-1-yl)-2-oxoethyl)amino)-2-(1-methyl-2,6-dioxopiperidin-3-yl)isoindoline-1,3-dione], the TRKA protein levels (TPM3-TRKA fusion protein [1]) is reported as “none or less effects on TRKA protein levels” and the TRKA protein levels (wild type TRKA protein) is reported as “none or less effects on TRKA protein levels”.

In the case of O=C1CCC(N2C(=O)c3ccc(N4CC(CN5CCN(c6cccc(-c7cnc8ccc(N9CCC[C@@H]9c9cccc(F)c9)nn78)n6)CC5)C4)cc3C2=O)C(=O)N1 (stereo partly drawn) [TR-198, 2-(2,6-dioxopiperidin-3-yl)-5-(3-((4-(6-(6-((R)-2-(3-fluorophenyl)pyrrolidin-1-yl)imidazo[1,2-b]pyridazin-3-yl)pyridin-2-yl)piperazin-1-yl)methyl)azetidin-1-yl)isoindoline-1,3-dione], the IC50 (KM12 cells; Table 3) is reported as 5.5 nM, the “growth of KM12 subcutaneous xenograft tumors” value ([3]; 10-20 mg/kg qd or bid via oral gavage (FIG. 15A)) is reported as “significant in vivo anti-tumor activity; also recorded: significantly repressed the growth” and the body weight ([4]; 10-20 mg/kg qd or bid via oral gavage (FIG. 15B)) is reported as “without inducing substantial weight losses”. It also gave a bioavailability ([5]; male, Swiss Albino, mouse, plasma, 2 mg/kg intravenous injection and 20 mg/kg oral gavage, over 12 hours (FIG. 14)) of roughly 16%.

Reference: patent US12065442B2, “Tropomyosin receptor kinase (TRK) degradation compounds and methods of use” (Cullgen (Shanghai), Inc., priority 2018, dated 2024)
